From patent publication US20110039808A1, “Multitarget Compounds Active at a PPAR and Cannabinoid Receptor” (priority 2007, published 2011)

How the values were obtained:
PPAR-γ receptor [1] = biological target: T1, PPAR-γ receptor (Homo sapiens, UniProt P37231); experiment: cell-based
T1 sequence (P37231 238-505 limits assumed): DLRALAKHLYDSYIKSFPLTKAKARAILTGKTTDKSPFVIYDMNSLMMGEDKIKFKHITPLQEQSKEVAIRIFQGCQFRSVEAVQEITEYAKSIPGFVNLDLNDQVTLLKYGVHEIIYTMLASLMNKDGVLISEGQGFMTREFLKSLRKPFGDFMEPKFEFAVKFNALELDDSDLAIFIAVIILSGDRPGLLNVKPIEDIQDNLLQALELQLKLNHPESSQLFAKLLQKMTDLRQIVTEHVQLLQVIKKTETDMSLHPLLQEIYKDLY
Excerpt: FIG. 14: Activity of a number of compounds of the invention at the PPAR-γ receptor in cell based system (GeneBlazer) versus rosglitazone control.

PPAR-γ receptor [2] = biological target: T2, PPAR-γ receptor (Homo sapiens, UniProt P37231); experiment: biochemical; format: biochemical
T2 sequence (P37231 1-505): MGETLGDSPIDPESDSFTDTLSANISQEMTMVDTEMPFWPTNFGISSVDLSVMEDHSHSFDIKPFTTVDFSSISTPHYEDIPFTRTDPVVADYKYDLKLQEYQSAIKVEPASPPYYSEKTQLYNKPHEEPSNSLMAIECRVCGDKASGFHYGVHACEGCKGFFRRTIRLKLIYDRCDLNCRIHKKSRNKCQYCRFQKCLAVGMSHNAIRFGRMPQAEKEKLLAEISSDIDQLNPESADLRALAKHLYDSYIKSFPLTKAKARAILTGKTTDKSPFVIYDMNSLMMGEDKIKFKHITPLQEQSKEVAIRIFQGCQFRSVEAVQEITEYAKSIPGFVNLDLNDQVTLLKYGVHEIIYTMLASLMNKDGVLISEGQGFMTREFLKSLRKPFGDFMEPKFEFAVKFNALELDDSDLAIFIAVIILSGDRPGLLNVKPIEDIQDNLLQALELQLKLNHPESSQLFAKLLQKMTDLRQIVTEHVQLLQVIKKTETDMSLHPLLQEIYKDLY

| SMILES | EC50 (PPAR-γ receptor [1]) [µM] | EC50 (PPAR-γ receptor [2]) [µM] | activity in initial dose-response curves (PPAR-γ receptor [2]; initial dose-response curves, statement follows the PPAR-γ cell free table) |
| --- | --- | --- | --- |
| Cc1c(C(=O)c2cccc3ccccc23)c2ccccc2n1CCNc1ccc(C(=O)O)c(O)c1 [DWIN1 (IX), 2-Hydroxy-4-{2-[2-methyl-3-(naphthalene-1-carbonyl)-indol-yl]-ethylamino}-benzoic acid] | 0.8 | 0.493 |  |
| Cc1c(CCNc2ccc(C(=O)O)c(O)c2)c2ccccc2n1C(=O)c1cccc(Cl)c1Cl [DWIN8 (XII), 4-{2-[1-(2,3-Dichloro-benzoyl)-2-methyl-1H-indol-3-yl]-ethylamino}-2-hydroxy-benzoic acid] |  |  | not active |
| Cc1c(C(=O)c2cccc3ccccc23)c2ccccc2n1CCNc1ccc(O)c(C(=O)O)c1 [DWIN2 (X), 2-Hydroxy-5-{2-[2-methyl-3-(naphthalene-1-carbonyl)-indol-1-yl]-ethylamino}-benzoic acid] | 1.05 | 0.358 |  |
